Source: article doi:10.1101/2023.08.23.554426v1 (biorxiv, 2023)
pKd: −log10 of the molar value.

How the values were obtained:
Settings in all cases: read-out: K1; phosphate buffer pH 7.6, 25 °C; stronger site of two-site fit
PfRKIP [1] = molecular target: PfRKIP (Plasmodium falciparum, UniProt Q7KQK1, H92A)
HsRKIP = HsRKIP (Homo sapiens, UniProt P30086); assay: ITC, sequential binding model
PfRKIP [2] = molecular target: PfRKIP (Plasmodium falciparum, UniProt Q7KQK1, S96A)
PfRKIP [3] = molecular target: T1, PfRKIP (Plasmodium falciparum, UniProt Q7KQK1); assay: ITC, sequential binding model
T1 sequence (Q7KQK1 1-190): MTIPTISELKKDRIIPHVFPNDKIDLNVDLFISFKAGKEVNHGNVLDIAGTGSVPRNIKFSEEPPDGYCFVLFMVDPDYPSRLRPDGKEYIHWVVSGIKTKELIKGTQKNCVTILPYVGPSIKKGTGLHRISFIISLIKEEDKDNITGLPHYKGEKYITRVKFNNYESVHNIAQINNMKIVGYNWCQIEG

PfRKIP [4] = molecular target: PfRKIP (Plasmodium falciparum, UniProt Q7KQK1, P80L)

Sequence of HsRKIP (P30086 whole entry): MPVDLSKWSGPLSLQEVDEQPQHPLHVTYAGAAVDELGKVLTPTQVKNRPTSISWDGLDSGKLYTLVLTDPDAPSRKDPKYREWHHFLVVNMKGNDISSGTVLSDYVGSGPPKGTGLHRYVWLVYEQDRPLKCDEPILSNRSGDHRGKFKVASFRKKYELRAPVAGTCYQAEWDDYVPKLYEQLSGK

CCCCCCCCCCCCCCCC(=O)OC[C@H](COP(=O)(O)O[C@@H]1[C@H](O)[C@H](OP(=O)(O)O)[C@@H](O)[C@H](O)[C@H]1O)OC(=O)CCCCCCCCCCCCCCC [PtdIns(3)P]
pKd (PfRKIP [1]): 4.81 | pKd (HsRKIP): 4.36 | pKd (PfRKIP [2]): 4.81 | pKd (PfRKIP [3]): 4.94 | pKd (PfRKIP [4]): 3.96
